Measurements reported in publication PMC4700476, “Differential regulation by AMP and ADP of AMPK complexes containing different γ subunit isoforms” (Biochemical Journal, 2016).

What was measured:
[1] = system: γ1-containing AMPK complexes in HEK-293 cells expressing FLAG–γ1; test: Activation of AMPK complexes in intact cells (anti-FLAG IP kinase assay and pThr172 blot); format: cell-based, human; conditions: γ1 complex; 60 min; phenformin 10 mM, berberine 300 μM, A23187 10 μM, A-769662 300 μM
Method: (§1) HEK-293 cells expressing tetracycline-inducible human γ1, γ2 and γ3 with N-terminal FLAG tags were obtained by inserting the appropriate DNA into cells carrying a Flp recombinase target site with co-transfection of DNA encoding Flp recombinase; expression of the γ subunits was induced by adding tetracycline (1 μg·ml^−1) to the medium for 48 h.
(§2) HEK-293 cells were grown in Dulbecco's modified Eagle's medium (DMEM) containing 4.5 g/l glucose, 10% (v/v) FBS, 100 units/ml penicillin, 100 μg/ml streptomycin, 200 μg/ml hygromycin and 15 μg/ml blasticidin. The medium was replaced with medium containing 1 g/l glucose, 16 h before the treatments described in the text.
(§3) Cell lysates were made using the rapid lysis procedure. Lysates containing stably expressed recombinant FLAG-tagged γ subunits were immunoprecipitated from HEK-293 cell lysates (90 μg of lysate protein) by incubation at 4°C for 2 h on a roller mixer with 7.5 μl of EZview Red anti-FLAG M2 affinity gel (Sigma–Aldrich). After extensive washing, the immunoprecipitates (IPs) were assayed for AMPK activity on an orbital shaker as described previously except that the AMARA peptide substrate was used in all assays apart from those shown in Figures 3 and 4. The SAMS peptide was used in the latter because, for reasons that remain unclear, the degree of allosteric activation is always greater using this substrate.
(§4) Figure 2 Activation of FLAG–γ1,–γ2 or–γ3 by various AMPK activators Cells expressing FLAG–γ1,–γ2 or–γ3 were incubated with DMSO (vehicle), phenformin (10 mM), berberine (300 μM), A23187 (10 μM) or A-769662 (300 μM) for 60 min, AMPK complexes were immunoprecipitated using anti-FLAG antibodies and were analysed by kinase assays (upper panel) and Western blotting (lower panel). […] The absolute activities (nmol/min/mg of lysate protein) in the DMSO controls were: 0.16±0.01 (γ1), 0.24±0.01 (γ2) and 0.053±0.001 (γ3; means ± S.E.M., n=3).

[2] = system: γ2-containing AMPK complexes in HEK-293 cells expressing FLAG–γ2; test: as above; format: cell-based, human; conditions: γ2 complex; 60 min; phenformin 10 mM, berberine 300 μM, A23187 10 μM, A-769662 300 μM
Method: as §1, §2, §3, §4

[3] = system: γ3-containing AMPK complexes in HEK-293 cells expressing FLAG–γ3; test: as above; format: cell-based, human; conditions: for AMPK activation and Thr172 phosphorylation in intact cells: γ3 complex, 60 min, phenformin 10 mM, berberine 300 μM, A23187 10 μM, A-769662 300 μM
Method: as §1, §2, §3, §4

[4] = system: AMPK; parameters: method as in PMID 24746562; conditions: AMPK not phosphorylated on Thr172; cited from earlier work
[5] = system: rat hepatocytes; parameters: method as in PMID 17855357; conditions: cited from earlier work
[6] = system: γ1-containing AMPK complexes in mouse skeletal muscle; parameters: method as in PMID 25695398; conditions: cited from earlier work
[7] = system: γ3-containing AMPK complexes in mouse skeletal muscle; parameters: method as in PMID 25695398; conditions: cited from earlier work

Row | Structure (SMILES) | AMPK activation and Thr172 phosphorylation in intact cells [1] | AMPK activation and Thr172 phosphorylation in intact cells [2] | AMPK activation and Thr172 phosphorylation in intact cells [3] | also measured
1 | CNc1ccc2oc(C[C@H]3O[C@@]4(CC[C@H]3C)O[C@H]([C@H](C)C(=O)c3ccc[nH]3)[C@H](C)C[C@H]4C)nc2c1C(=O)O [A23187] | activated | activated | activated | 
2 | COc1ccc2cc3[n+](cc2c1OC)CCc1cc2c(cc1-3)OCO2 [berberine, Berberine chloride] | activated | activated | activated | 
3 | N#Cc1c(O)c2c(-c3ccc(-c4ccccc4O)cc3)csc2[nH]c1=O [A-769662] | did not significantly activate | only modest increases | only modest increases | allosteric activation of AMPK [4]: > 60 fold; increases in Thr172 phosphorylation [5]: negligible; phosphorylation of acetyl-CoA carboxylase (ACC) [5]: marked phosphorylation
4 | O=C(O)c1ccc2c3c1cccc3c(=O)n1c3ccccc3nc21 [STO-609] |  |  |  | effect on activation of γ3 complex by A23187 ([3]; results not shown): completely blocked
5 | [H]/N=C(/N)N/C(=N/[H])NCCc1ccccc1 [phenformin] | activated | activated | activated | 
6 | NC(=O)c1ncn([C@@H]2O[C@H](CO)[C@@H](O)[C@H]2O)c1N [AICAR, 5-aminoimidazole-4-carboxamide riboside] |  |  |  | activation of γ1-containing complexes [6]: activated both isoforms; activation of γ3-containing complexes [7]: activated both isoforms
